Measurements published in patent US5545656A, “2-Oxidole-1-carboxamide pharmaceutical agents for the treatment of alzheimer's disease” (Pfizer Inc., priority 1995, dated 1996).

Tests used:
Format in all cases: cell-based
[1] = test system: IL-1β release by human monocytes; test: ATP-induced IL-1β posttranslational processing (ATP kick), ELISA; settings: Monocyte, LPS-stimulated human monocytes, IL-1β ELISA, read-out: Human Monocyte AtP kick % Inh.
Experimental: PROTOCOL FOR ATP-INDUCED IL-Iβ POSTTRANSLATIONAL PROCESSING
Cells: Human monocytes were isolated by Ficoll-Hypaque centrifugation of heparinized blood. The monocyte band off the gradient was collected, diluted with RPMI 1640, 5% fetal bovine serum (FBS), 20 mM N-[2[hydroxyethyl]piperazine-N-[2-ethanesulfonic acid] (Hepes), pH 7.3 (40 ml) and the cells were collected by centrifugation. The cell pellet was washed twice with 30 ml of RPMI 1640, 5% FBS, 20 mM Hepes (Maintenance Medium). The monocytes were resuspended in 50 ml of the Maintenance Medium. Into each well of a 96 well plate was added […] mononuclear cells. The cell suspension was diluted to a final concentration of 1.5×10^5 mononuclear cells. (To accomplish this, the cell suspension was diluted to a final concentration of 1.5×10^6 cell/ml and 0.2 ml was added to each well of the plate.) After incubating at 37° C. for 2 hours, the supernatant containing non-adherent cells was removed by aspiration. The adherent cells were washed once with 0.15 ml of Maintenance medium. Then, 0.15 ml of fresh Maintenance Medium was added and the cells were incubated overnight at 37° C.
Stimulation: Lipopolysaccharide (LPS) was added to a final concentration of 10 ng/ml and incubated at 37° C. for 2 hours. […]

[2] = test system: production of PGD2 (cyclooxygenase pathway) by RBL-1 cells; test: Inhibition of the cyclooxygenase pathway (PGD2 formation) in RBL-1 cells; settings: Rattus norvegicus, 5 min, [14C]-arachidonic acid plus calcium ionophore, N in brackets, read-out: RBL-cells PGD2 formation IC50 ± SD (N)
Experimental: METHOD FOR ASSESSING THE INHIBITION OF THE CYCLOOXYGENASE PATHWAY IN (RBL) CELLS
a) RBL-1 cell incubations. […] A 0.5 ml allquot of cell suspension was preincubated at 30° C. for 10 minutes with 1 μl dimethyl sulfoxide (DMSO) solution of drug. […] Five minutes later, the incubation was terminated by the addition of a 0.27 ml volume of acetonitrile (ACN)/acetic acid (HOAc) (100:3). The mixture was then clarified of precipitated protein by centrifugation. Analysis of 5-LO/COX pathway products was performed by radioactivity monitoring after separation by high performance liquid chromatography (HPLC). […] The area under the curve (AUC) as measured in integration units for each product was compared to the average AUC value for untreated (no drug) controls. […] Half-maximal (IC50) points were estimated from these curves.

[3] = test system: IL-1β release by human monocytes; test: ATP kick, slightly different assay that employed metabolically labeled cells; settings: Monocyte, read-out: Human Monocyte AtP kick IC50 (No. Trials), starred values
Description: *Values for tenidap (the first compound in the table), and in one case
ilonidap (the second compound in the table) were derived from a slightly
different assay that employed metabolically labeled cells.

Row | SMILES | IC50 [2] | inhibition at 19 µM [1] | IC50 [3]
1 | NC(=O)N1C(=O)C(C(=O)c2cccs2)c2cc(Cl)ccc21 (centres unmarked) [tenidap, 5-chloro-2,3-dihydro-2-oxo-3-(2-thienylcarbonyl)-indole-1-carboxamide] | 0.02 ± 0.02 µM |  | 40 µM
2 | Cc1ccc2c(c1)C(C(=O)c1cccs1)C(=O)N2C(N)=O (centres unmarked) [CH3 H 2'-thienyl] | 99 µM | 32% | 

Second part, led by results:

Row | IC50 [2] | SMILES | inhibition at 19 µM [1] | IC50 [3]
3 | 0.7 µM | NC(=O)N1C(=O)C(C(=O)c2ccsc2)c2cc(Cl)ccc21 (centres unmarked) [Cl H 3'-thienyl] | 14% | 
4 | 37 µM | NC(=O)N1C(=O)C(C(=O)C(F)(F)F)c2cc(Cl)ccc21 (centres unmarked) [Cl H Trifluoromethyl] |  | 
5 | 3.2 µM | NC(=O)N1C(=O)C(C(=O)c2ccoc2)c2cc(Cl)ccc21 (centres unmarked) [Cl H 3'-furyl] |  | 
